The text below walks through data of patent publication US20240101602A1, “ANTIMICROBIAL PEPTIDES AND METHOD OF PREVENTING OR TREATING INFECTION BY USING THE SAME” (priority 2020, published 2024).

≈ marks a conversion by molar mass, not a printed value. Read-outs that look alike come from different tables or passages of the source. Non-standard residues stand in square brackets, D forms with d. Residues, ends and D or L forms follow the SMILES beside them. *: point of attachment. Palmitoyl = CCCCCCCCCCCCCCCC(=O)*; Octanoyl = CCCCCCCC(=O)*; Orn = NCCC[C@H](N)C(=O)O; Hexanoyl = CCCCCC(=O)*; Butyryl = CCCC(=O)*

In experiment [1] the test system is Pseudomonas aeruginosa ATCC 9027.
The test system of experiment [2] is Salmonella typhimurium NCHU 15721.
Experiment [3] relates to Staphylococcus epidermidis ATCC 14990.
Experiment [4] has as its system Klebsiella pneumonia NTUH-K2044.
The next experiment has as its system Eco DH5α. The experiment can be described thus: MIC and MBC by serial dilution in 96-well plate. The class given is cell-based, Escherichia coli. As to conditions: Table 13. The method, then: The effect of peptide length on the antimicrobial activity was investigated by deciding the minimal inhibitory concentration (MIC) and minimal bactericidal concentration (MBC) for each peptide against the pathogen with the media and growth conditions of phytopathogenic bacteria and E. coli as described in Table 1. Single bacterial colony grown on an optimal rich agar medium was picked, and each grew in 3 mL of the same rich liquid medium for 4 to 6 h.
For experiments carried out in the rich medium, the bacterial broth culture was then diluted in the same medium to give a final concentration of OD600=0.08, and then further diluted 100 folds in the same medium.
For experiments carried out in the minimal medium, the bacterial cells were collected from the bacterial liquid culture by centrifugation, re-suspended in an optimal minimal medium to give a final concentration of OD600=0.08, and then further diluted 100 folds in the same minimal medium.
Fifty microliters of serially diluted peptides (2-fold the final concentration) were added in a 96-well polystyrene plate with 50 μL of the bacterial culture. The final concentrations of peptides were 0, 2, 4, 8, 16 and 32 μg/mL. The plates were incubated at an optimal temperature without shaking.
MBC was determined as the lowest peptide concentration at which no colonies formed.

Experiment [5] deals with Staphylococcus aureus BCRC 10777.
The subject of experiment [6] is Pectobacterium carotovorum subsp. carotovorum. It counts as cell-based. The method, then: (§1) The effect of peptide length on the antimicrobial activity was investigated by deciding the minimal inhibitory concentration (MIC) and minimal bactericidal concentration (MBC) for each peptide against the pathogen with the media and growth conditions of phytopathogenic bacteria and E. coli as described in Table 1. Single bacterial colony grown on an optimal rich agar medium was picked, and each grew in 3 mL of the same rich liquid medium for 4 to 6 h. For experiments carried out in the rich medium, the bacterial broth culture was then diluted in the same medium to give a final concentration of OD600=0.08, and then further diluted 100 folds in the same medium. For experiments carried out in the minimal medium, the bacterial cells were collected from the bacterial liquid culture by centrifugation, re-suspended in an optimal minimal medium to give a final concentration of OD600=0.08, and then further diluted 100 folds in the same minimal medium. Fifty microliters of serially diluted peptides (2-fold the final concentration) were added in a 96-well polystyrene plate with 50 μL of the bacterial culture. […] The plates were incubated at an optimal temperature without shaking. […] MBC was determined as the lowest peptide concentration at which no colonies formed. The experiments were conducted in an optimal minimal medium for each pathogen. The media and growth conditions were described in Tables 2 and 3. MIC and MBC values were determined following the procedures described above. […] Fifty microliters of serially diluted peptides (2-fold the final concentration) were added in a 96-well polystyrene plate with 50 μL of the fungal spore suspension.

A further experiment deals with Erwinia chrysanthemi. The class given is cell-based. The method, then: as §1
The subject of the next experiment is Botrytis cinerea. It counts as cell-based. Here is the method:
(§2) The experiments were conducted in an optimal minimal medium for each pathogen. The media and growth conditions were described in Tables 2 and 3. MIC and MBC values were determined following the procedures described above. […] Fifty microliters of serially diluted peptides (2-fold the final concentration) were added in a 96-well polystyrene plate with 50 μL of the fungal spore suspension. […] The plates were incubated at an optimal temperature without shaking. […] MFC was determined as the lowest peptide concentration at which no fungal growth was observed.

A further experiment relates to Cgl FST02. The class given is cell-based, Colletotricum gloeosporioides. To be noted: Cgl FST02; optimal minimal media (Table 11). Here is the method:
as §2

The mark [7] stands for this setting: Salmonella typhimurium NCHU 15721.
[8] abbreviates: Pseudomonas aeruginosa ATCC 9027.
[9] abbreviates: Bc, optimal minimal media (Table 11).

The term MBC denotes the smallest concentration meeting the test's criterion for killing. By MIC is commonly meant the smallest concentration in the dilution series that meets the test's criterion for growth inhibition. In [1] (ATCC 9027), Ac-WKKLKKMLKKL-NH2 [pepD3-7M] came in with a minimal bactericidal concentration (MBC) of 8 µg/mL and an MIC of 4 µg/mL.
As for Ac-WKKIKKIIKKIKKI-NH2 [pepI2], the MBC in experiment [2] (setting [7]) is 16 µg/mL; in experiment [3], 32 µg/mL; in experiment [4] it was 32 µg/mL; with Eco DH5α, 5.3 µg/mL; in experiment [5], 32 µg/mL; in experiment [1] (ATCC 9027), 4 µg/mL. The MBC in [6] worked out at 1.8 µg/mL; with Erwinia chrysanthemi, 16.0 µg/mL. The minimum inhibitory concentration (MIC) in [2] (setting [7]) worked out at 8 µg/mL; in [3] it was 16 µg/mL; in experiment [4] it was 16 µg/mL; in the experiment on Eco DH5α it was 5.3 µg/mL; in experiment [5] it was 32 µg/mL; in experiment [1] (ATCC 9027), 4 µg/mL. The values for the minimum inhibitory concentration (MIC) (in experiment [6]; in the experiment on Erwinia chrysanthemi) were 1.5 µg/mL and 16.0 µg/mL, respectively.
In [1] (ATCC 9027), Ac-WKKLHKLLKKL-NH2 [pepD3-5H] gave an MBC of 8 µg/mL and an MIC of 4 µg/mL.
For `CCCC(=O)N[C@@H](Cc1c[nH]c2ccccc12)C(=O)N[C@@H](CCCCN)C(=O)N[C@@H](CCCCN)C(=O)N[C@@H](CC(C)C)C(=O)N[C@@H](CCCCN)C(=O)N[C@@H](CCCCN)C(=O)N[C@@H](CC(C)C)C(=O)N[C@@H](CC(C)C)C(=O)N[C@@H](CCCCN)C(=O)N[C@@H](CCCCN)C(=O)N[C@@H](CC(C)C)C(N)=O` [pepD3B] (Butyryl-WKKLKKLLKKL-NH2), the MBC in experiment [3], in experiment [4] and in experiment [5] was 16 µg/mL (≈ 10.7 µM) throughout. Further, the MIC in experiment [3], in experiment [4] and in [5] was 16 µg/mL (≈ 10.7 µM) throughout.
With Ac-WRRLRRLLRRLRRL-NH2 [pepR2], the MBC came to 16 µg/mL in [3], 32 µg/mL in experiment [4] and 16 µg/mL in experiment [5]. In addition, the MIC in experiment [3] was found to be 16 µg/mL; in [4], 32 µg/mL; in experiment [5], 16 µg/mL.
With `CCCCCC(=O)N[C@@H](Cc1c[nH]c2ccccc12)C(=O)N[C@@H](CCCCN)C(=O)N[C@@H](CCCCN)C(=O)N[C@@H](CC(C)C)C(=O)N[C@@H](CCCCN)C(=O)N[C@@H](CCCCN)C(=O)N[C@@H](CC(C)C)C(=O)N[C@@H](CC(C)C)C(=O)N[C@@H](CCCCN)C(=O)N[C@@H](CCCCN)C(=O)N[C@@H](CC(C)C)C(N)=O` [pepD3H] (Hexanoyl-WKKLKKLLKKL-NH2), the MBC was 32 µg/mL (≈ 21 µM) in [2] (murium NCHU 15721); 16 µg/mL (≈ 10.5 µM) in [3]; 16 µg/mL (≈ 10.5 µM) in experiment [4]; 8 µg/mL (≈ 5.25 µM) in experiment [5]; 8 µg/mL (≈ 5.25 µM) in experiment [1] (ATCC 9027). The MIC in [2] (murium NCHU 15721) came to 16 µg/mL (≈ 10.5 µM); in experiment [3], 16 µg/mL (≈ 10.5 µM); in [4], 16 µg/mL (≈ 10.5 µM); in experiment [5] it was 8 µg/mL (≈ 5.25 µM); in [1] (ATCC 9027) it was 4 µg/mL (≈ 2.63 µM).
Turning to `CC(=O)N[C@@H](Cc1c[nH]c2ccccc12)C(=O)N[C@@H](CCCN)C(=O)N[C@@H](CCCN)C(=O)N[C@@H](CC(C)C)C(=O)N[C@@H](CCCN)C(=O)N[C@@H](CCCN)C(=O)N[C@@H](CC(C)C)C(=O)N[C@@H](CC(C)C)C(=O)N[C@@H](CCCN)C(=O)N[C@@H](CCCN)C(=O)N[C@@H](CC(C)C)C(=O)N[C@@H](CCCN)C(=O)N[C@@H](CCCN)C(=O)N[C@@H](CC(C)C)C(N)=O` [pepO2, Ac-WOOLOOLLOOLOOL-NH2] (Ac-W[Orn][Orn]L[Orn][Orn]LL[Orn][Orn]L[Orn][Orn]L-NH2), the minimal bactericidal concentration (MBC) in [3], in experiment [4] and in experiment [5] was 32 µg/mL (≈ 18.6 µM) in each case. Also, the MIC in [3] is 32 µg/mL (≈ 18.6 µM); in experiment [4] it was 16 µg/mL (≈ 9.28 µM); in experiment [5] it was 32 µg/mL (≈ 18.6 µM).
For `CCCCCCCC(=O)N[C@@H](Cc1c[nH]c2ccccc12)C(=O)N[C@@H](CCCCN)C(=O)N[C@@H](CCCCN)C(=O)N[C@@H](CC(C)C)C(=O)N[C@@H](CCCCN)C(=O)N[C@@H](CCCCN)C(=O)N[C@@H](CC(C)C)C(=O)N[C@@H](CC(C)C)C(=O)N[C@@H](CCCCN)C(=O)N[C@@H](CCCCN)C(=O)N[C@@H](CC(C)C)C(N)=O` [pepD3O] (Octanoyl-WKKLKKLLKKL-NH2), the figures for the MBC in [3], in [4] and in [5] were 8 µg/mL (≈ 5.16 µM), 16 µg/mL (≈ 10.3 µM) and 8 µg/mL (≈ 5.16 µM), respectively. Besides, the minimal inhibitory concentration (MIC) is 8 µg/mL (≈ 5.16 µM) in experiment [3], 16 µg/mL (≈ 10.3 µM) in experiment [4] and 8 µg/mL (≈ 5.16 µM) in experiment [5].
In [1] (ATCC 9027), Ac-WKKLKKFLKKL-NH2 [pepD3-7F] registered an MBC of 8 µg/mL and an MIC of 4 µg/mL.
As for Ac-WKKLRKLLKKL-NH2 [pepD3-5R], in experiment [1] (setting [8]), the MBC worked out at 8 µg/mL and the MIC was determined as 4 µg/mL.
Take Ac-WKKVKKVVKKVKKV-NH2 [pepV2]: in the experiment on Eco DH5α, the minimum bactericidal concentration (MBC) was found to be 32.0 µg/mL and the MIC was 32.0 µg/mL.
In the experiment on Botrytis cinerea, `CCCCCCCCCCCCCCCC(=O)N[C@@H](Cc1c[nH]c2ccccc12)C(=O)N[C@@H](CCCCN)C(=O)N[C@@H](CCCCN)C(=O)N[C@@H](CC(C)C)C(=O)N[C@@H](CCCCN)C(=O)N[C@@H](CCCCN)C(=O)N[C@@H](CC(C)C)C(=O)N[C@@H](CC(C)C)C(=O)N[C@@H](CCCCN)C(=O)N[C@@H](CCCCN)C(=O)N[C@@H](CC(C)C)C(=O)N[C@@H](CCCCN)C(=O)N[C@@H](CCCCN)C(=O)N[C@@H](CC(C)C)C(N)=O` [pepD2P] (Palmitoyl-WKKLKKLLKKLKKL-NH2) had an MFC of 6.4 µg/mL (≈ 3.15 µM) and an MIC of 6.4 µg/mL (≈ 3.15 µM).
With Ac-WKKLKKALKKL-NH2 [pepD3-7A], in [1] (ATCC 9027), the MBC was found to be 8 µg/mL and the MIC stood at 4 µg/mL.
As to “Stearyl-WKKLKKLLKKLKKL-NH2 (stearyl-WKKLKKLLKKLKKL-NH2) [pepD2S, 11]”, the MFC result against Cgl FST02 and against Botrytis cinerea (setting [9]) was “— (“—” indicates no antimicrobial activity being detected at the highest peptide concentration (32 μg/mL) tested in this study.)” in each case. Also, the MIC result against Cgl FST02 and against Botrytis cinerea (setting [9]) was “— (“—” indicates no antimicrobial activity being detected at the highest peptide concentration (32 μg/mL) tested in this study.)” each time.
In experiment [1] (ATCC 9027), Ac-WKKLKKILKKL-NH2 [pepD3-7I] came in with an MBC of 4 µg/mL and an MIC of 4 µg/mL.
